Where “and” joins values, the source holds several entries; their conditions need not be identical. Equal entries are not always repeated.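 In this assay, cells in 96-well plates receive the compound at five concentrations for 48 hours. Endpoints are linearly interpolated between the surrounding concentrations. The concentration for 50% growth inhibition is given as GI50. Definition used: TGI = concentration required for complete inhibition of growth.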 Some results are limits rather than exact numbers.

In PubChem BioAssay (NCI) one finds GI50 and TGI data, which are given here for 11 compounds.

Test systems include SK-MEL-28 melanoma; SK-MEL-2 melanoma; SF-268 CNS; K-562 leukemia; MCF7 breast; NCI-H460 lung; UO-31 renal; COLO 205 colon; MDA-MB-435; BT-549 breast.
Experiment in all cases: NCI tumour cell line growth inhibition, 48 h

With `CC(C)(C)OC(=O)CC(NC(=O)OCc1ccccc1)NC(=O)OC(C)(C)C` (stereo not given), the GI50 was 67.6 µg/mL in the assay with SK-MEL-28 melanoma; 48.1 µg/mL in the assay on SK-MEL-2 melanoma; 87.1 µg/mL with SF-268 CNS; 38.2 µg/mL in the assay on K-562 leukemia; 44.1 µg/mL in the assay on MCF7 breast; 39.8 µg/mL in the assay with NCI-H460 lung. Besides, the GI50 is 27 µg/mL in the assay on UO-31 renal, 50.6 µg/mL in the assay with COLO 205 colon, 87.9 µg/mL in the assay on MDA-MB-435 and 14.2 µg/mL in the assay on BT-549 breast.
For `C/C=C(/CCC1NCCc2c1[nH]c1ccccc21)[Si](C)(C)C` (stereo not given), the TGI in the assay on SF-268 CNS was > 100 µM and 29 µM; in the assay with K-562 leukemia, above 100 µM; with UO-31 renal, > 100 µM and 17.3 µM; in the assay with COLO 205 colon, 3.92 µM.
On to `CC(=O)Nc1ccc2c(c1)C(=O)c1ccccc1-2`, for which the TGI in the assay with SK-MEL-28 melanoma, with SF-268 CNS, in the assay with K-562 leukemia, with NCI-H460 lung, in the assay on UO-31 renal and in the assay with COLO 205 colon was above 100 µM in each case.
For `COC(=O)C1=C(O)C(C(=O)OC)[C@@]2(O)[C@@H](C(=O)OC)[C@H](C)C[C@@H]1[C@@H]2C(=O)OC` (stereo not given in full), the TGI is above 100 µM in the assay with SK-MEL-28 melanoma; 58.9 µM with SK-MEL-2 melanoma; above 100 µM with K-562 leukemia; above 100 µM with MCF7 breast; 44.3 µM in the assay on NCI-H460 lung; 67.6 µM in the assay on UO-31 renal. The values for the TGI in the assay with MDA-MB-435 and in the assay with BT-549 breast were 32.1 µM and above 100 µM, respectively.
Take `CC(C)(CCCCC(C)(C)NC1=NCCO1)NC1=NCCO1`: the TGI in the assay on SK-MEL-28 melanoma, with SK-MEL-2 melanoma, with SF-268 CNS, in the assay on K-562 leukemia, in the assay on MCF7 breast and in the assay with NCI-H460 lung was above 10 µM in each case. In addition, the TGI in the assay on UO-31 renal, in the assay on COLO 205 colon and with MDA-MB-435 was above 10 µM in each case.
`CCOC(=O)c1c(Cl)c2c(n1Cc1ccccc1)-c1oncc1CCC2`: the GI50 in the assay with SF-268 CNS is above 100 µM; with K-562 leukemia, 3.68 µM; in the assay with MCF7 breast it was 3.21 µM; in the assay with NCI-H460 lung, 3.62 µM; in the assay on COLO 205 colon, 3.53 µM; in the assay with MDA-MB-435, 1.4 µM. Further, the TGI in the assay with SF-268 CNS was above 100 µM; in the assay on K-562 leukemia, above 100 µM; with MCF7 breast, above 100 µM; with NCI-H460 lung it was above 100 µM; in the assay on COLO 205 colon, above 100 µM; in the assay on MDA-MB-435, 4.92 µM.
Turning to `COC(=O)C(C)NP(=O)(OCc1cccc(Cn2cnc3c(N)ncnc32)c1)Oc1ccccc1` (stereo not given), the GI50 was above 100 µM in the assay with SK-MEL-28 melanoma; above 100 µM in the assay on SK-MEL-2 melanoma; 58.4 µM with SF-268 CNS; above 100 µM in the assay with K-562 leukemia; 14.9 µM with MCF7 breast; above 100 µM in the assay on NCI-H460 lung. Moreover, the GI50 in the assay on UO-31 renal, in the assay with MDA-MB-435 and with BT-549 breast was above 100 µM each time. The TGI in the assay on SK-MEL-28 melanoma is above 100 µM; in the assay with SK-MEL-2 melanoma, above 100 µM; in the assay on SF-268 CNS, above 100 µM; with K-562 leukemia it was above 100 µM; in the assay with MCF7 breast, 66.6 µM; with NCI-H460 lung it was above 100 µM. Further, the TGI in the assay on UO-31 renal, in the assay with MDA-MB-435 and with BT-549 breast was above 100 µM in each case.
With `O=[N+]([O-])c1ccc(N/N=C\c2cc(Br)ccc2O)nc1`, the GI50 was 2.05 µM with SK-MEL-28 melanoma; 4.88 µM with SK-MEL-2 melanoma; 0.452 µM in the assay with SF-268 CNS; 0.612 µM with K-562 leukemia; 0.489 µM in the assay with MCF7 breast; 0.636 µM in the assay with NCI-H460 lung. Further, the GI50 in the assay on UO-31 renal is 0.376 µM; in the assay on COLO 205 colon, 3.3 µM; with MDA-MB-435, 1.39 µM; in the assay on BT-549 breast, 4.95 µM. The TGI was above 100 µM with SK-MEL-28 melanoma; above 100 µM in the assay with SK-MEL-2 melanoma; 4.18 µM with SF-268 CNS; above 100 µM with K-562 leukemia; above 100 µM with MCF7 breast; 2.72 µM in the assay on NCI-H460 lung. Moreover, the TGI in the assay on UO-31 renal is 2.01 µM; in the assay with COLO 205 colon it was above 100 µM; in the assay with MDA-MB-435, above 100 µM; in the assay on BT-549 breast it was above 100 µM.
For the compound `NS(=O)(=O)c1c(O)c2ccccc2oc1=O`, the TGI with SK-MEL-28 melanoma, with SK-MEL-2 melanoma, in the assay with SF-268 CNS, with K-562 leukemia, with MCF7 breast and with NCI-H460 lung was above 100 µM each time. The TGI in the assay on UO-31 renal, with COLO 205 colon, with MDA-MB-435 and with BT-549 breast was above 100 µM in each case.
As for `NCCCCNOCCCN`, the TGI with SK-MEL-28 melanoma, in the assay on SK-MEL-2 melanoma, in the assay with SF-268 CNS, in the assay with K-562 leukemia, in the assay on MCF7 breast and with NCI-H460 lung was above 100 µM in each case. The TGI in the assay with UO-31 renal, in the assay with COLO 205 colon, in the assay on MDA-MB-435 and in the assay on BT-549 breast was above 100 µM in each case.
Turning to `O=S1(=O)C(=C(c2ccccc2)c2ccccc2)S(=O)(=O)c2ccccc21`, the TGI in the assay on SK-MEL-28 melanoma, in the assay with SK-MEL-2 melanoma, in the assay with SF-268 CNS, with K-562 leukemia, in the assay with MCF7 breast and in the assay with NCI-H460 lung was above 100 µM throughout. Besides, the TGI in the assay on UO-31 renal and in the assay with COLO 205 colon was above 100 µM each time.
